Test results published in paper PMC8552062, “Contributions of UDP-Glucuronosyltransferases to Human Hepatic and Intestinal Metabolism of Ticagrelor and Inhibition of UGTs and Cytochrome P450 Enzymes by Ticagrelor and its Glucuronidated Metabolite” (Frontiers in Pharmacology, 2021).

Molecular target: T1, UGT1A3 (Homo sapiens, UniProt P35503)
T1 sequence (P35503 29-534): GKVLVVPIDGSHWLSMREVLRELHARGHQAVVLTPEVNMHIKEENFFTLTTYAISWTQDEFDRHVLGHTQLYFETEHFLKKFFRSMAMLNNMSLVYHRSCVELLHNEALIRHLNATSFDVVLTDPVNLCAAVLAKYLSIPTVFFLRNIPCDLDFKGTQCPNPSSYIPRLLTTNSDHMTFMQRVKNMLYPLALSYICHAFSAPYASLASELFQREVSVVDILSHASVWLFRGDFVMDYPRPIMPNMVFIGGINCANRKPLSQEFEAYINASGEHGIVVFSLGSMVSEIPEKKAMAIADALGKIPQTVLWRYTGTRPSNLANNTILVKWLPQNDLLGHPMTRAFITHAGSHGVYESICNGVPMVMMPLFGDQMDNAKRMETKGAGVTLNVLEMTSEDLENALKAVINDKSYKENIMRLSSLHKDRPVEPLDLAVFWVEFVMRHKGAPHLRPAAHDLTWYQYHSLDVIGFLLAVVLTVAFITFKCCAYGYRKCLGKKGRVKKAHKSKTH
Assay: Ticagrelor glucuronidation by recombinant human UGT1A3
Type: in vitro ADME
Design: purchased BD Gentest; host or cells: baculovirus-infected insect cells
Conditions: recombinant human UGT1A3, pH 7.4
Experimental: Ticagrelor glucuronidation was investigated in an in vitro incubation system by using HLM, HIM, and recombinant human UGTs. The incubation system consisted of enzyme sources (HLM, HIM, or human recombinant UGTs), various concentrations of ticagrelor (dissolved in 50% methanol, 1% v/v, 1, 2, 5, 10, 20, 50, 100, 200, 500 μM of final concentration), alamethicin (50 μg/mg protein), 5 mM MgCl2, 100 mM tris-HCL buffer (pH 7.4), and 5 mM UDPGA in a total volume of 100 μl. Alamethicin is a pore-forming polypeptide used to activate UGTs in HLM and HIM ([Fisher et al., 2000]). Preliminary studies were conducted to determine the optimal protein concentrations and incubation times. Linear conditions of ticagrelor-O-Glu formation from ticagrelor, i.e., HLM, 0.2 mg of protein/ml and 60 min, HIM, 0.2 mg of protein/ml and 60 min, and recombinant human UGTs, 0.2 mg of protein/ml and 60 min were selected. The incubation mixture without UDPGA was placed on ice for 15 min to activate UGT by alamethicin. […]
Kinetic analyses were performed using the mean values of triplicate determinations with either pooled HLM, HIM, or recombinant human UGTs. All data were analyzed by nonlinear regression analysis using the GraphPad Prism 6 (GraphPad Software Inc., CA, United States). […] Intrinsic clearance (CLint) was calculated by dividing Vmax by Km.

CCCSc1nc(N[C@@H]2C[C@H]2c2ccc(F)c(F)c2)c2nnn([C@@H]3C[C@H](OCCO)[C@@H](O)[C@H]3O)c2n1 [Ticagrelor]
microsomal CLint: 0.04 µL/min/mg
